Test results from patent US5399570A, “Aspartic acid derivatives, and their use for inhibiting platelete aggregation” (Cassella Aktiengesellschaft, priority 1992, dated 1995).
Read-outs that look alike come from different tables or passages of the source.

What was measured:
[1] = tested on: filtered, plasma-free human platelets; experiment: inhibition of aggregation of filtered human platelets after ADP or thrombin stimulation; type: cell-based; details: Platelet
Procedure: (§1) The compounds of the formula I are in particular tested for their inhibiting action in blood platelet aggregation and the adhesion of fibrinogen to blood platelets. The measurement of aggregation and the binding of ^125 I-fibrinogen is carried out on filtered, plasma-free human platelets. Platelet activation is effected by means of ADP or thrombin.
As a functional test, the inhibition of aggregation of filtered human platelets is measured after ADP or thrombin stimulation by the compounds according to the invention. The IC50 value of inhibition is given.

[2] = target: T1, glycoprotein IIb/IIIa localised on blood platelets (fibrinogen receptor) (Homo sapiens, UniProt P05106+P08514); experiment: inhibition of binding of ^125 I-fibrinogen to human platelets after stimulation with ADP; details: after stimulation with ADP (10 μM)
T1 construct: carried out on filtered, plasma-free human platelets; endogenous in cells; host or cells: filtered, plasma-free human platelets, stimulated with ADP (10 μM)
T1 sequence (P08514 32-887 limits assumed): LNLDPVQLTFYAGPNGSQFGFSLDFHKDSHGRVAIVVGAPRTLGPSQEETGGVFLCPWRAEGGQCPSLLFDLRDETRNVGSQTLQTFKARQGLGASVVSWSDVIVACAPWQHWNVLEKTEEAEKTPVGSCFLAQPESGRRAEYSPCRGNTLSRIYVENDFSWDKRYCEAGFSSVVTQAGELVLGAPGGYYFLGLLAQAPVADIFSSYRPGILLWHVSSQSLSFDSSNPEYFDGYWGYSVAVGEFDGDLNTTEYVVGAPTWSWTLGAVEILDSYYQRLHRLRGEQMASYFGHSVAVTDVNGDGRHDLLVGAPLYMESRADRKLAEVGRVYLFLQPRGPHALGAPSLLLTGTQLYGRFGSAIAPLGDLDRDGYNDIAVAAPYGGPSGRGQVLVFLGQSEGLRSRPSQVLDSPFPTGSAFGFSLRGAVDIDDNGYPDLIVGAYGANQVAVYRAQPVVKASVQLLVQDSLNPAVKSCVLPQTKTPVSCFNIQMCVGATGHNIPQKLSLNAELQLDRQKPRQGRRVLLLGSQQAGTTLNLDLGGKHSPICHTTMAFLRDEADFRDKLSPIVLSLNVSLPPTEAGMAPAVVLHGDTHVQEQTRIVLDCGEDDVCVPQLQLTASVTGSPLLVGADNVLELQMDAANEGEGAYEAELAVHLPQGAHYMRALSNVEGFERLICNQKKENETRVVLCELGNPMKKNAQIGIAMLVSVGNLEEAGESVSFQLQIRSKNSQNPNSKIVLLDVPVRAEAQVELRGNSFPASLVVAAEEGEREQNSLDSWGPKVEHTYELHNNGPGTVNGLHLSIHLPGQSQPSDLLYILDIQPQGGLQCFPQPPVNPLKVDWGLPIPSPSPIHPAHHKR
T1 sequence (P05106 27-788): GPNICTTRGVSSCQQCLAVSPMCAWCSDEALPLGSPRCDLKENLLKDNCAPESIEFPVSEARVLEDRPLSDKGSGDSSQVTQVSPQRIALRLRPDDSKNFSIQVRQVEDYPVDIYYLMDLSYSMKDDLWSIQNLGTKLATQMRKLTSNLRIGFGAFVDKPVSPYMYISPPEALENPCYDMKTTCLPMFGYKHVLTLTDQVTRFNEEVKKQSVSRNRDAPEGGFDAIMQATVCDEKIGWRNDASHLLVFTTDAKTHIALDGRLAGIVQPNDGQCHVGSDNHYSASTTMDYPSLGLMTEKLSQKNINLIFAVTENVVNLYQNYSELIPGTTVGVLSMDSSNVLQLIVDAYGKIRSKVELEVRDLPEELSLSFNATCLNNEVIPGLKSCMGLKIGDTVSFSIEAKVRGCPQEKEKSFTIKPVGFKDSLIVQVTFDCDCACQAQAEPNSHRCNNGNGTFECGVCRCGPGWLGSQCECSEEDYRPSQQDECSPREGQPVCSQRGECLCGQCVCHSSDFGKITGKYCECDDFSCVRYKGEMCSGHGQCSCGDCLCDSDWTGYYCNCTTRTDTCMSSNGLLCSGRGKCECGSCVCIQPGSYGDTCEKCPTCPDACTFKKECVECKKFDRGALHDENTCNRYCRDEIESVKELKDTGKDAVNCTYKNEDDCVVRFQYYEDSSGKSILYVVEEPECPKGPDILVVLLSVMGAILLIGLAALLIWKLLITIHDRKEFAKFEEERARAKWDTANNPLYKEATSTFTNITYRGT
Description: Integrins are cell membrane glycoproteins and mediate cell adhesion by interaction with a large number of extracelluar proteins, such as fibronectin, laminin, fibrinogen, collagen, vitronectin, and yon Willebrand factor or with other cell membrane proteins, such as, for example, ICAM-1. An important receptor of the integrin family is glycoprotein IIb/IIIa localised on blood platelets (fibrinogen receptor)--a key protein in platelet-platelet interaction and thrombus formation. A central fragment in the receptor recognition sequence of these proteins is the tripeptide Arg--Gly--Asp (E. Ruoslahti and M. D. Pierschbacher, Science 238 (1987) 491-497; D. R. Phillips, I. F. Charo, L. V. Parise and L. A. Fitzgerald, Blood 71 (1988) 831-843).
as §1
The Ki value of the inhibition of binding of ^125 I-fibrinogen after stimulation with ADP (10 μm) is given.
Reference: J. S. Bennett and G. Vilaire, J. Clin. Invest. 64, (1979), 1393-1401.

[3] = ADP stimulation, read-out: Inhibition of platelet aggregation ADP, IC50 value of inhibition
[4] = thrombin stimulation, read-out: Inhibition of platelet aggregation Thrombin, IC50 value of inhibition

| IC50 [1, 3] | IC50 [1, 4] | Ki [2] | SMILES |
| --- | --- | --- | --- |
| 8 µM | 2 µM | – | CC(C)[C@H](NC(=O)[C@H](CC(=O)O)NC(=O)c1ccc(CC2CCN(C(=N)N)CC2)cc1)C(=O)O [Example 1, p-(4-(N-Amidinopiperidinyl)methyl)benzoyl-L-aspartyl-L-valine] |
| 15 µM | 10 µM | – | N=C(N)N1CCC(Cc2ccc(C(=O)N[C@@H](CC(=O)O)C(=O)NC3CCCCC3)cc2)CC1 [Example 2, p-(4-(N-Amidinopiperidinyl)methyl)benzoyl-L-aspartylcyclohexylamide] |
| 15 µM | 5 µM | – | N=C(N)N1CCC(Cc2ccc(C(=O)N[C@@H](CC(=O)O)C(=O)NCCC(c3ccccc3)c3ccccc3)cc2)CC1 [Example 3] |
| 20 µM | 15 µM | 10 µM | CC(C)NC(=O)[C@H](CC(=O)O)NC(=O)c1ccc(CC2CCN(C(=N)N)CC2)cc1 [Example 4] |
| 2 µM | 2 µM | 1.8 µM | CN(CC(=O)N[C@@H](CC(=O)O)C(=O)NCCC(c1ccccc1)c1ccccc1)C(=O)c1ccc(CNC(=N)N)cc1 [Example 9, p-Guanidinomethylbenzoylsarcosyl-L-aspartyl-3,3-diphenylpropylamide] |
| 8 µM | 4 µM | 3.1 µM | CN(CC(=O)N[C@@H](CC(=O)O)C(=O)NC(c1ccccc1)c1ccccc1)C(=O)[C@H]1CC[C@H](CNC(=N)N)CC1 [Example 12, trans-4 -Guanidinomethylcyclohexanecarboxylsarcosyl-L-aspartylbenzhydrylamide] |
| 4.5 µM | 1.5 µM | 0.8 µM | CC(C)[C@H](NC(=O)[C@H](CC(=O)O)NC(=O)c1ccc(OC2CCN(C(=N)N)CC2)cc1)C(=O)O [Example 14, p-(4-N-Amidinopiperidinyloxy)benzoyl-L-aspartyl-L-valine] |
